Where two headings read alike, the source gives them in different places.
How the values were obtained:
S. pyogenes = assay: MIC by Steers' agar dilution method
Sal. anthracis = assay: microbe, parasite or virus in culture; assay type: cell-based
[1] = Nephrotoxicity test in rabbits; settings: 100 mg./kg. (iv)
K. pneumoniae A9977 = assay: Standard experimental infection in mice; assay type: in vivo; settings: for ED50: Klebsiella pneumoniae, A9977, read-out: PD50
[2] = Stability in solution (remaining activity by paper disc assay); assay type: physicochemical; settings: for Remaining Activity (%): 0 days; for remaining at 48 h: 2 days; for remaining at 72 h: 3 days; for remaining at 168 h: 7 days
Procedure: Stability of BB-[…] was determined in both a 10% and an 0.02% solution. The stability is indicated as the relative activity remaining in the test solution at given periods to the initial solution. The activity was assayed using paper discs on B. subtilis PCI 219 plate (pH 6).

[3] = test system: E. cloacae A20464 (El-19); assay: Standard experimental infection in mice; assay type: in vivo; settings: Run C-811
Shig. sonnei = assay: MIC by Steers' agar dilution method; assay type: cell-based; settings: Shigella sonnei, MHA
Sal. typhosa = assay: MIC by Steers' agar dilution method; assay type: cell-based; settings: MHA
E. coli Juhl = assay: Standard experimental infection in mice; assay type: in vivo; settings: Table 6
E. coli = assay: MIC by Steers' agar dilution method; assay type: cell-based; settings: Escherichia coli
Pr. mirabilis = assay: MIC by Steers' agar dilution method; settings: Proteus mirabilis
[4] = 0.02% solution, pH 4 (0.1 M AcOH - NaOAc buffer)
[5] = 0.02% solution, pH 7 (0.1 M phosphate buffer)
[6] = 0.1 m nh4oh-nh4cl buffer, 0.02% solution, pH 9 (0.1 M NH4 OH--NH4 Cl buffer)
[7] = 10% aqueous solution, room temperature, pH 6.1 (unadjusted)

O=C(O)Cn1nc2ccc(SCC3=C(C(=O)O)N4C(=O)C(NC(=O)[C@H](O)c5ccccc5)[C@H]4SC3)nn2c1=O (stereo partly drawn) [BB-S488, 7-(D-Mandelamido)-3-(2-carboxymethyl-2,3-dihydro-s-triazolo[4,3-b]pyridazin-3-on-6-ylthiomethyl)-3-cephem-4-carboxylic Acid]
116%: remaining at 168 h [2, 7]
0.2 µg/mL: MIC (S. pyogenes) | MIC (E. coli; ATCC8739, Ec-15 ATCC 8739, HIA, Table 4, read-out: MIC) | MIC (E. coli; ATCC8739, Ec-15 ATCC 8739, MHA, Table 3, read-out: MIC) | MIC (E. coli; ATCC8739, Ec-15 ATCC 8739, MHA, Table 4, read-out: MIC) | MIC (E. coli; BX-1373, MHA, Table 1, read-out: MIC) | MIC (E. coli; Ec-1 NIHJ, MHA, Table 3, read-out: MIC) | MIC (E. coli; Ec-3 Juhl A15119, MHA, Table 3, read-out: MIC) | MIC (E. coli; Ec-3 Juhl A15119, MHA, Table 4, read-out: MIC) | MIC (E. coli; Ec-3 Juhl A15119, NA, Table 4, read-out: MIC) | MIC (E. coli; Ec-5 K-12, ML-1630 A20363, MHA, Table 3, read-out: MIC) | MIC (E. coli; Ec-40 A20361, MHA, Table 3, read-out: MIC) | MIC (E. coli; Ec-50 A20109, MHA, Table 3, read-out: MIC) | MIC (E. coli; Ec-59 A20766, MHA, Table 3, read-out: MIC) | MIC (E. coli; Juhl A15119, MHA, Table 1, read-out: MIC) | MIC (E. coli; Juhl, MHA, Example 10, read-out: MIC) | MIC (E. coli; NIHJ, MHA, Example 10, read-out: MIC) | MIC (Pr. mirabilis; Pm-2 A9900, HIA, Table 4) | MIC (Pr. mirabilis; Pm-2 A9900, MHA, Table 3) | MIC (Pr. mirabilis; Pm-2 A9900, MHA, Table 4) | MIC (Pr. mirabilis; Pm-4 A20454, MHA, Table 3)
0.05 µg/mL: MIC (Shig. sonnei; Example 10) | MIC (Sal. typhosa; A9498, Table 1) | MIC (Sal. typhosa; Example 10) | MIC (E. coli; A9660, MHA, Table 1, read-out: MIC) | MIC (E. coli; Ec-1 NIHJ, HIA, Table 4, read-out: MIC) | MIC (E. coli; Ec-1 NIHJ, MHA, Table 4, read-out: MIC) | MIC (E. coli; strain not named (2nd of 3), MHA, Example 10, read-out: MIC) | MIC (Pr. mirabilis; A9554, MHA, Table 1) | MIC (Pr. mirabilis; strain not given (1st of 2), MHA, Example 10) | MIC (Pr. mirabilis; strain not named (2nd of 2), MHA, Example 10)
0/5: No. of survivors/No. tested (K. pneumoniae A9977; 0.1 mg./kg., Table 6) | No. of survivors/No. tested (K. pneumoniae A9977; Run C-805, 3×10^3 LD50, single sc, 0.1 mg./kg.)
4/5: No. of survivors/No. tested (K. pneumoniae A9977; 0.4 mg./kg., Table 6) | No. of survivors/No. tested (K. pneumoniae A9977; Run C-805, 3×10^3 LD50, single sc, 0.4 mg./kg.) | No. of survivors/No. tested ([3]; 1.6 mg./kg.)
0.54 mg/kg: ED50 ([3]; Enterobacter cloacae, read-out: PD50)
> 100 µg/mL: MIC (E. coli; Ec-11 A20366 (β-lactamase), HIA, Table 4, read-out: MIC) | MIC (E. coli; Ec-11 A20366 (β-lactamase), MHA, Table 4, read-out: MIC) | MIC (E. coli; Ec-11 A20366 (β-lactamase), NA, Table 4, read-out: MIC) | MIC (E. coli; Ec-46 A15164 (β-lactamase), HIA, Table 4, read-out: MIC) | MIC (E. coli; Ec-51 A20343 (β-lactamase), HIA, Table 4, read-out: MIC) | MIC (E. coli; Ec-51 A20343 (β-lactamase), MHA, Table 4, read-out: MIC)
102%: remaining at 168 h [2, 4]
No nephrotoxic sign was seen: Nephrotoxicity [1]
25 µg/mL: MIC (E. coli; Ec-46 A15164, MHA, Table 3, read-out: MIC) | MIC (E. coli; Ec-56 A20365, MHA, Table 3, read-out: MIC)
12.5 µg/mL: MIC (E. coli; Ec-4 A15169, MHA, Table 3, read-out: MIC)
100 µg/mL: MIC (E. coli; Ec-46 A15164 (β-lactamase), MHA, Table 4, read-out: MIC) | MIC (E. coli; Ec-47 A15170, MHA, Table 3, read-out: MIC)
0.4 µg/mL: MIC (S. pyogenes; Sp-2 Dick, MHA, Table 2) | MIC (S. pyogenes; Sp-3 A9604, MHA, Table 2) | MIC (S. pyogenes; Sp-5 A15040, MHA, Table 2) | MIC (S. pyogenes; Sp-6 A20066, MHA, Table 2) | MIC (S. pyogenes; Sp-7 Dig 7, MHA, Table 2) | MIC (S. pyogenes; Sp-8 A15041, MHA, Table 2) | MIC (S. pyogenes; Sp-9 A20201, MHA, Table 2) | MIC (S. pyogenes; Sp-10 A20202, MHA, Table 2) | MIC (S. pyogenes; Streptococcus pyogenes) | MIC (E. coli; Ec-3 Juhl A15119, HIA, Table 4, read-out: MIC) | MIC (E. coli; Ec-35 A9435, MHA, Table 3, read-out: MIC) | MIC (E. coli; Ec-49 A20107, MHA, Table 3, read-out: MIC) | MIC (E. coli; Ec-58 A9675, MHA, Table 3, read-out: MIC) | MIC (E. coli; Ec-62 A20895, MHA, Table 3, read-out: MIC) | MIC (Pr. mirabilis; Pm-3 A20119, MHA, Table 3)
0%: remaining at 168 h [2, 6]
0.1 µg/mL: MIC (Sal. anthracis) | MIC (Shig. sonnei; Ss-1 Yale, Table 3) | MIC (E. coli; A15810, MHA, Table 1, read-out: MIC) | MIC (E. coli; ATCC8739, ATCC 8739, MHA, Table 1, read-out: MIC) | MIC (E. coli; ATCC8739, Ec-15 ATCC 8739, NA, Table 4, read-out: MIC) | MIC (E. coli; Ec-1 NIHJ, NA, Table 4, read-out: MIC) | MIC (E. coli; Ec-34 A9660, MHA, Table 3, read-out: MIC) | MIC (E. coli; Ec-44 A9535, MHA, Table 3, read-out: MIC) | MIC (E. coli; strain not named (1st of 3), MHA, Example 10, read-out: MIC) | MIC (Pr. mirabilis; A9900, MHA, Table 1) | MIC (Pr. mirabilis; Pm-1 A9554, HIA, Table 4) | MIC (Pr. mirabilis; Pm-1 A9554, MHA, Table 3) | MIC (Pr. mirabilis; Pm-1 A9554, MHA, Table 4) | MIC (Pr. mirabilis; Pm-1 A9554, NA, Table 4) | MIC (Pr. mirabilis; Pm-2 A9900, NA, Table 4) | MIC (Pr. mirabilis; Pm-5 A9702, MHA, Table 3)
1.6 µg/mL: MIC (Pr. mirabilis; Pm-6 A21222, MHA, Table 3)
78%: remaining at 72 h [2, 4]
6.3 µg/mL: MIC (E. coli; ATCC8739, ATCC 8739, MHA, Example 10) | MIC (E. coli; Ec-36 A15147 (β-lactamase), HIA, Table 4, read-out: MIC) | MIC (E. coli; Ec-36 A15147 (β-lactamase), MHA, Table 4, read-out: MIC) | MIC (E. coli; Ec-36 A15147 (β-lactamase), NA, Table 4, read-out: MIC)
5/5: No. of survivors/No. tested (K. pneumoniae A9977; 1.6 mg./kg., Table 6) | No. of survivors/No. tested (K. pneumoniae A9977; 6.3 mg./kg., Table 6) | No. of survivors/No. tested (K. pneumoniae A9977; 25 mg./kg., Table 6) | No. of survivors/No. tested (K. pneumoniae A9977; Run C-805, 3×10^3 LD50, single sc, 1.6 mg./kg.) | No. of survivors/No. tested (K. pneumoniae A9977; Run C-805, 3×10^3 LD50, single sc, 6.3 mg./kg.) | No. of survivors/No. tested (K. pneumoniae A9977; Run C-805, 3×10^3 LD50, single sc, 25 mg./kg.) | No. of survivors/No. tested ([3]; 6.3 mg./kg.) | No. of survivors/No. tested ([3]; 25 mg./kg.) | No. of survivors/No. tested ([3]; 100 mg./kg.) | No. of survivors/No. tested (E. coli Juhl; 0.4 mg./kg.) | No. of survivors/No. tested (E. coli Juhl; 1.6 mg./kg.) | No. of survivors/No. tested (E. coli Juhl; 6.3 mg./kg.) | No. of survivors/No. tested (E. coli Juhl; 25 mg./kg.)
90%: remaining at 72 h [2, 7]
20%: remaining at 24 h ([2]; 0.1 m nh4oh-nh4cl buffer, 0.02% solution, pH 9 (0.1 M NH4 OH--NH4 Cl buffer), 1 day)
128%: remaining at 48 h [2, 7]
100%: Remaining Activity (%) [2, 4] | Remaining Activity (%) [2, 5] | Remaining Activity (%) ([2]; 0.02% solution, pH 9 (0.1 M NH4 OH--NH4 Cl buffer)) | Remaining Activity (%) [2, 7]
50 µg/mL: MIC (E. coli; Ec-11 A20366, MHA, Table 3, read-out: MIC) | MIC (E. coli; Ec-46 A15164 (β-lactamase), NA, Table 4, read-out: MIC) | MIC (E. coli; Ec-51 A20343 (β-lactamase), NA, Table 4, read-out: MIC) | MIC (E. coli; Ec-51 A20343, MHA, Table 3, read-out: MIC)
0.025 µg/mL: MIC (Shig. sonnei; A9516, Table 1) | MIC (E. coli; NIHJ, MHA, Table 1, read-out: MIC)
3.1 µg/mL: MIC (E. coli; A15147, MHA, Table 1, read-out: MIC) | MIC (E. coli; BX-1373, MHA, Example 10, read-out: MIC) | MIC (E. coli; Ec-36 A15147, MHA, Table 3, read-out: MIC) | MIC (E. coli; Ec-45 A15148, MHA, Table 3, read-out: MIC) | MIC (E. coli; strain not named (3rd of 3), MHA, Example 10, read-out: MIC)
87%: remaining at 48 h [2, 5]
56%: remaining at 168 h [2, 5]
0.12 mg/kg: ED50 (E. coli Juhl; Escherichia coli, read-out: PD50)
64%: remaining at 72 h [2, 5]
0.26 mg/kg: ED50 (K. pneumoniae A9977; Run C-805, 3×10^3 LD50, single sc) | ED50 (K. pneumoniae A9977; Table 6)
93%: remaining at 48 h [2, 4]
2/5: No. of survivors/No. tested ([3]; 0.4 mg./kg.) | No. of survivors/No. tested (E. coli Juhl; 0.1 mg./kg.)
14%: remaining at 48 h [2, 6]
13%: remaining at 72 h [2, 6]
